From ChEMBL document CHEMBL1201862, “PubChem BioAssay data set” (2004)
Calls of active or inactive are those of the source.

Legend:
Bcl-2-related protein A1 [1] = molecular target: T1, Bcl-2-related protein A1 (Mus musculus, UniProt Q07440); assay: Bfl-1 inhibitors blocking BH3 peptide binding, confirmation, biochemical, TR-FRET, mouse Bfl-1 (AID 621);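 also: TR-FRET binding of GST-Bfl-1 to FITC-labelled Bid peptide via terbium antibody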
T1 sequence (Q07440 whole entry): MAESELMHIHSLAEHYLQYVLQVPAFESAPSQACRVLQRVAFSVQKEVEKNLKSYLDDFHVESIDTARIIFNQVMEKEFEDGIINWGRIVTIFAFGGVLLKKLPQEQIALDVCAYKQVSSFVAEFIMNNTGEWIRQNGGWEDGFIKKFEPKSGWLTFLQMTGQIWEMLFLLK

Bcl-2-related protein A1 [2] = molecular target: T1, Bcl-2-related protein A1; assay: Bfl-1 inhibitors, primary screen, biochemical, fluorescence polarization, FITC-Bid, mouse (AID 432)
cells [3] = assay type: functional
[4] = molecular target: Heat shock protein HSP 90-alpha (Homo sapiens, UniProt P07900); assay: Luminescence-based dose response biochemical high throughput screening assay for inhibitors of the Heat Shock Protein 90 (HSP90). [Related pubchem assays: 1831 (Summary AID.), 1846 (Confirmation screen.), 1789 (Primary screen.)]
Paired box protein Pax-8 = Paired box protein Pax-8 (Homo sapiens, UniProt Q06710); assay: inhibitors of PAX8-driven TPO luciferase reporter, dose response, RMG-I cells, cherry-pick (AID 687027); assay type: functional, cell-based;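 also: luciferase reporter driven by Pax8 target thyroperoxidase promoter measured by SteadyGlo luminescence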
Sequence of Paired box protein Pax-8 (Q06710 whole entry): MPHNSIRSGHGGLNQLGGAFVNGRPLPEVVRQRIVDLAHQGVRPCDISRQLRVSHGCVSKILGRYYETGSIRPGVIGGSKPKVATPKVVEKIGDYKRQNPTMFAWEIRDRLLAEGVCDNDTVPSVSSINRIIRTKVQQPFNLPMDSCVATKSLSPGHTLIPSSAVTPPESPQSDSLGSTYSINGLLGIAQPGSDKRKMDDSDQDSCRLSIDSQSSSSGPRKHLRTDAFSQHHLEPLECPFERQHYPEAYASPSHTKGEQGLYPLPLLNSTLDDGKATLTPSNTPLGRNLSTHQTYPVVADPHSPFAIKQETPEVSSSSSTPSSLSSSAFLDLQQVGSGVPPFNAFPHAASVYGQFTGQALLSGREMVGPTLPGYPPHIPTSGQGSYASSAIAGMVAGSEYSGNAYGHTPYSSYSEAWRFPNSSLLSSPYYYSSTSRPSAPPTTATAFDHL

[5] = HepG2 cell cytotoxicity, dose response, cytotoxicity control for Shn3 inhibitor project, CellTiter-Glo, cherry-picked (AID 624134); assay type: functional, cell-based
[6] = P. falciparum late gametocyte killing, dose response, luminescence (AID 1117278); assay type: functional, cell-based;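 also: gametocytes exposed to compound for 24 hours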
[7] = Jurkat T cell cytotoxicity, dose response, cytotoxicity control for P. falciparum gametocyte viability project, luminescence (AID 1117277); assay type: functional, cell-based;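 also: potency reflects loss of cellular ATP meaning fewer viable cells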
[8] = Shn3 3'UTR reporter inhibitors, dose response, cell-based, Clone20 osteoblasts, firefly luciferase, cherry-picked (AID 624132); assay type: functional;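 also: firefly luciferase luminescence from reporter carrying the Shn3 3'UTR in osteoblasts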
[9] = cytotoxicity toward DRD oncogenic fibroblasts, dose response, cell-based, non-viral oncogenic, luminescence (AID 1934); assay type: functional; details: Homo sapiens
[10] = HepG2 cell cytotoxicity, dose response, cytotoxicity control, plate reader, cherry-pick, antagonist series (AID 743416); assay type: functional, cell-based
[11] = molecular target: Luciferin 4-monooxygenase (Photinus pyralis, UniProt P08659); assay: firefly luciferase enzyme inhibitors, dose response, biochemical, luminescence (AID 1891)
Sequence of Luciferin 4-monooxygenase (P08659 whole entry): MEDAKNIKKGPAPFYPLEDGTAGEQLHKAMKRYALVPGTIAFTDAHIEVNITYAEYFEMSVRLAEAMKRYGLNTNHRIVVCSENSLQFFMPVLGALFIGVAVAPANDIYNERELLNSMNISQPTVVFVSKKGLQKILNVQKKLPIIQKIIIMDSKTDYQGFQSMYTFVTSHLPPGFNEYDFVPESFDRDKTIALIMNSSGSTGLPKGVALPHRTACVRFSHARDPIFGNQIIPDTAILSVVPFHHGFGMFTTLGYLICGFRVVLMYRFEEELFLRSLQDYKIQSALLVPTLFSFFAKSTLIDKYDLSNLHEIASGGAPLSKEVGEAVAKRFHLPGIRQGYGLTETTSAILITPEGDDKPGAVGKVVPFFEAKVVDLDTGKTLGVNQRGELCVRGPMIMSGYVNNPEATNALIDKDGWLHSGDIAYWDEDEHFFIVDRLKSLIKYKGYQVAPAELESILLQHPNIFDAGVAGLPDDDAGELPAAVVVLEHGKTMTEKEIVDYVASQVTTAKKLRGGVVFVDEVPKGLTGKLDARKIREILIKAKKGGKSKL

BJ [12] = assay: cytotoxicity toward Ras-transformed BJeLR fibroblasts, dose response, cell-based, alamar blue fluorescence, cherrypicked samples (AID 2631); assay type: functional; details: Homo sapiens;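 also: confirmatory dose-response assay in RAS-dependent BJ fibroblasts engineered with TERT, LT and ST, with cytotoxicity read by fluorescence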
[13] = non-specific cell cytotoxicity, dose response, cytotoxicity control for PAX8 inhibitor project, plate reader, dry powder samples (AID 743021); assay type: functional, cell-based
BJ [14] = assay: cytotoxicity toward BJ-TERT fibroblasts, dose response, cell-based, RAS-independent, luminescence (AID 1933); assay type: functional; details: Homo sapiens
[15] = MC4R antagonists, dose response, counter-screen for LGR2 antagonist project, cell-based, plate reader, cherry pick (AID 743444); assay type: functional;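 also: transfected HEK 293 cells stimulated with alpha-MSH peptide; potency of inhibitors of the alpha-MSH evoked signal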
BJ [16] = assay: cells; assay type: functional, cell-based; details: Homo sapiens
[17] = A549 cell cytotoxicity, dose response, cytotoxicity control, plate reader, cherry-pick, antagonist series (AID 743412); assay type: functional, cell-based
[18] = HEK293 cell cytotoxicity, dose response, cytotoxicity control, plate reader, cherry-picked samples (AID 743446); assay type: functional, cell-based
[19] = control 3'UTR Renilla luciferase suppression, dose response, counter-screen for Shn3 inhibitor project, cell-based, Clone20-Shn3RL, cherry-picked (AID 624133); assay type: functional
[20] = Luminescence Cell-Based Dose Confirmation HTS to Identify Inhibitors of Platelet Dense Granule Release. [Related pubchem assays: 1663 (Primary HTS), 1678 (Summary of Project)]; assay type: functional
[21] = LGR2 antagonists, dose response, cell-based, HEK293, CRE-luciferase reporter, cherry pick, set 2 (AID 743343); assay type: functional;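 also: transfected cells were stimulated with diluted bursicon conditioned medium after compound addition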
BJ [22] = assay: cytotoxicity toward BJ-TERT-LT-ST fibroblasts, dose response, cell-based, RAS-independent, luminescence (AID 1935); assay type: functional; details: Homo sapiens;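 also: BJ fibroblasts immortalized with TERT plus LT and ST oncogenes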
[23] = test system: Streptococcus sp. 'group A'; assay: growth inhibition of control SK(-) GAS strain, dose response, counter-screen for streptokinase expression inhibitor project, luminescence, kanamycin, BacTiterGlo, confirmation (AID 1900); assay type: functional, organism-based
[24] = molecular target: Voltage-gated inwardly rectifying potassium channel KCNH2 (Homo sapiens, UniProt Q12809); assay: hERG protection from proarrhythmic block, potency, dose response, cell-based, thallium flux (AID 2121); assay type: ADME
Sequence of Voltage-gated inwardly rectifying potassium channel KCNH2 (Q12809 whole entry): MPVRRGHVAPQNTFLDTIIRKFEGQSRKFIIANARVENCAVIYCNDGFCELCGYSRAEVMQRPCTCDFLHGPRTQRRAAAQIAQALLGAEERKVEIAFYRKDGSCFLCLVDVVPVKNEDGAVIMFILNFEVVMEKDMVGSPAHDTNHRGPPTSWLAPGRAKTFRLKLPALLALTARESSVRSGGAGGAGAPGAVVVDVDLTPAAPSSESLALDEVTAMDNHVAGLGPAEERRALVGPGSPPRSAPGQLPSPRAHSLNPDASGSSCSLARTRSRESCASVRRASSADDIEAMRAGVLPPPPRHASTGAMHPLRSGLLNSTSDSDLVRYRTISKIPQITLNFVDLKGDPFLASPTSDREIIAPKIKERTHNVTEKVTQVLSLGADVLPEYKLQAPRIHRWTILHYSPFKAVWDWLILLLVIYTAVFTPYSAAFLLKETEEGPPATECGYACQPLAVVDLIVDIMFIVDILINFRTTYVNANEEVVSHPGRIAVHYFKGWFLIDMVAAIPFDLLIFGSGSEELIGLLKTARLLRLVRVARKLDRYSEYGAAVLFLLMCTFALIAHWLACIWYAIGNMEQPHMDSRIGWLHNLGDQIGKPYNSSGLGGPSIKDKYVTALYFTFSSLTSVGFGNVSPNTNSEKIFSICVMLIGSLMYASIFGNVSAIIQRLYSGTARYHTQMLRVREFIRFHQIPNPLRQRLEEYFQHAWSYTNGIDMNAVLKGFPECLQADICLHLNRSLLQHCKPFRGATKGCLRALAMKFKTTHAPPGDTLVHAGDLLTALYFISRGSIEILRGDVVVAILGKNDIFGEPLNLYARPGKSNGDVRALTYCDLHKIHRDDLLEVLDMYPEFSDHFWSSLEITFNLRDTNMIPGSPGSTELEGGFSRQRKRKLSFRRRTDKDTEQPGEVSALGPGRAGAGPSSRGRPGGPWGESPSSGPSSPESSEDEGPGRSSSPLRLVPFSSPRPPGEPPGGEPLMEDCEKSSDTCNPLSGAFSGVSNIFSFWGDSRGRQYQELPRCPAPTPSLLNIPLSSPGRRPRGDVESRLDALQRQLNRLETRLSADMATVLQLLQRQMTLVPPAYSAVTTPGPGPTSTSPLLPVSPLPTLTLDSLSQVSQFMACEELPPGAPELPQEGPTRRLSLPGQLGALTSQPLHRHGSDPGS

Streptococcus = assay: Group A Streptococcus viability loss, dose response, counter-screen for streptokinase expression inhibitor project, luminescence, BacTiterGlo (AID 1915); assay type: functional, organism-based;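 also: potency for reduction of bacterial viability or growth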
Cytochrome P450 1A2 = molecular target: T2, Cytochrome P450 1A2 (Homo sapiens, UniProt P05177);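 also: PubChem cytochrome P450 panel assay, CYP1A2 panel member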
T2 sequence (P05177 whole entry): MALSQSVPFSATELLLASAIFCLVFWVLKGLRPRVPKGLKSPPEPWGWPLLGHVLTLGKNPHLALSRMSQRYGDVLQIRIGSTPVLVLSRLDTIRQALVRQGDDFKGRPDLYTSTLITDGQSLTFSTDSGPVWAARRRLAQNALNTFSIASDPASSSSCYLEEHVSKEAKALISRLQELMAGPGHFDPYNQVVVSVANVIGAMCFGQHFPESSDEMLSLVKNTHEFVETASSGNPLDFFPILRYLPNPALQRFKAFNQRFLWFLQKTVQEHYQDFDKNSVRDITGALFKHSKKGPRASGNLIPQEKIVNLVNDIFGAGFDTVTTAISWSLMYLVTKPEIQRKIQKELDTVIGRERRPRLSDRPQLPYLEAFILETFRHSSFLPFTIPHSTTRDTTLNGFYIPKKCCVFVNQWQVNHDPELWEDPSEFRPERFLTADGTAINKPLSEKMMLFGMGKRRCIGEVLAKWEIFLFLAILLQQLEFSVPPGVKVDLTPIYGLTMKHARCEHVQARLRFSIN

[25] = molecular target: G-protein coupled receptor 55 (Homo sapiens, UniProt Q9Y2T6); assay: GPR55 antagonists blocking LPI-driven arrestin recruitment, primary screen, imaging, U2OS, beta-arrestin-GFP, LPI agonist (AID 2013); assay type: functional;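 also: antagonist potency measured as reduced agonist-driven arrestin aggregation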
Sequence of G-protein coupled receptor 55 (Q9Y2T6 whole entry): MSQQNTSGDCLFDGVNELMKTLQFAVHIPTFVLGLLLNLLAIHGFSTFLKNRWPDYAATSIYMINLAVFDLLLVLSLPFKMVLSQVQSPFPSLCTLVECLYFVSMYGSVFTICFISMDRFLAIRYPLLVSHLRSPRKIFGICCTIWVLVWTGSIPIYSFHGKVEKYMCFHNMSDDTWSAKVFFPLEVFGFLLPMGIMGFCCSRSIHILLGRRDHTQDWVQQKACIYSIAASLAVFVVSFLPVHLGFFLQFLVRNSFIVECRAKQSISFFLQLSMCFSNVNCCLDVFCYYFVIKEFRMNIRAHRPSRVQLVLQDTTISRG

Cytochrome P450 3A4 = Cytochrome P450 3A4 (Homo sapiens, UniProt P08684);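 also: CYP3A4 tested as one member of a cytochrome P450 panel screen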
Cytochrome P450 2C19 = Cytochrome P450 2C19 (Homo sapiens, UniProt P33261); assay: Cytochrome panel assay with activity outcomes. Panel member name: p450-cyp2c19 Compounds with AC50 equal or less than 10 uM are considered active; assay type: functional; details: read-out: AC50
Streptokinase A = molecular target: T3, Streptokinase A (Streptococcus pyogenes serotype M1, UniProt P10520); assay: S. pyogenes streptokinase expression inhibitors, potency, dose response, plasminogen activation absorbance, OD405 (AID 1914); assay type: functional, Streptococcus pyogenes M1 GAS;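 also: secreted streptokinase activity via plasminogen activation per viability signal from cell pellet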
T3 sequence (P10520 whole entry): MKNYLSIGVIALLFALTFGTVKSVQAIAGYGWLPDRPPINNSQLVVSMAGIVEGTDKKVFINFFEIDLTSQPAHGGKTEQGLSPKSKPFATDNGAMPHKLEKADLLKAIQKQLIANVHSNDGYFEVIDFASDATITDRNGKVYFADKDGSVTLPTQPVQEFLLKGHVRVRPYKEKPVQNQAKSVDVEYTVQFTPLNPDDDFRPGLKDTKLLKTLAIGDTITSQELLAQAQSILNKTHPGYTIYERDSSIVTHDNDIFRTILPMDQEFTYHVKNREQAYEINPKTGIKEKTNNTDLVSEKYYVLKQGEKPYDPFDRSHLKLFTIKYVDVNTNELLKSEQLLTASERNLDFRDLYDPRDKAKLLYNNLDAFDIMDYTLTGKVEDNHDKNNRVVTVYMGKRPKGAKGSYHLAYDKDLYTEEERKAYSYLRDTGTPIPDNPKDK

cells [26] = assay type: functional, cell-based
Fatty acid synthase [27] = molecular target: T4, Fatty acid synthase (Homo sapiens, UniProt P49327); assay: FAS thioesterase domain inhibitors, dose response, biochemical, endpoint fluorescence intensity, uHTS hits (AID 624327); assay type: functional;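 also: fluorescence from hydrolysis of an O-methyl fluorescein acyl ester substrate by the enzyme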
T4 sequence (P49327 whole entry, the tested form may be a part): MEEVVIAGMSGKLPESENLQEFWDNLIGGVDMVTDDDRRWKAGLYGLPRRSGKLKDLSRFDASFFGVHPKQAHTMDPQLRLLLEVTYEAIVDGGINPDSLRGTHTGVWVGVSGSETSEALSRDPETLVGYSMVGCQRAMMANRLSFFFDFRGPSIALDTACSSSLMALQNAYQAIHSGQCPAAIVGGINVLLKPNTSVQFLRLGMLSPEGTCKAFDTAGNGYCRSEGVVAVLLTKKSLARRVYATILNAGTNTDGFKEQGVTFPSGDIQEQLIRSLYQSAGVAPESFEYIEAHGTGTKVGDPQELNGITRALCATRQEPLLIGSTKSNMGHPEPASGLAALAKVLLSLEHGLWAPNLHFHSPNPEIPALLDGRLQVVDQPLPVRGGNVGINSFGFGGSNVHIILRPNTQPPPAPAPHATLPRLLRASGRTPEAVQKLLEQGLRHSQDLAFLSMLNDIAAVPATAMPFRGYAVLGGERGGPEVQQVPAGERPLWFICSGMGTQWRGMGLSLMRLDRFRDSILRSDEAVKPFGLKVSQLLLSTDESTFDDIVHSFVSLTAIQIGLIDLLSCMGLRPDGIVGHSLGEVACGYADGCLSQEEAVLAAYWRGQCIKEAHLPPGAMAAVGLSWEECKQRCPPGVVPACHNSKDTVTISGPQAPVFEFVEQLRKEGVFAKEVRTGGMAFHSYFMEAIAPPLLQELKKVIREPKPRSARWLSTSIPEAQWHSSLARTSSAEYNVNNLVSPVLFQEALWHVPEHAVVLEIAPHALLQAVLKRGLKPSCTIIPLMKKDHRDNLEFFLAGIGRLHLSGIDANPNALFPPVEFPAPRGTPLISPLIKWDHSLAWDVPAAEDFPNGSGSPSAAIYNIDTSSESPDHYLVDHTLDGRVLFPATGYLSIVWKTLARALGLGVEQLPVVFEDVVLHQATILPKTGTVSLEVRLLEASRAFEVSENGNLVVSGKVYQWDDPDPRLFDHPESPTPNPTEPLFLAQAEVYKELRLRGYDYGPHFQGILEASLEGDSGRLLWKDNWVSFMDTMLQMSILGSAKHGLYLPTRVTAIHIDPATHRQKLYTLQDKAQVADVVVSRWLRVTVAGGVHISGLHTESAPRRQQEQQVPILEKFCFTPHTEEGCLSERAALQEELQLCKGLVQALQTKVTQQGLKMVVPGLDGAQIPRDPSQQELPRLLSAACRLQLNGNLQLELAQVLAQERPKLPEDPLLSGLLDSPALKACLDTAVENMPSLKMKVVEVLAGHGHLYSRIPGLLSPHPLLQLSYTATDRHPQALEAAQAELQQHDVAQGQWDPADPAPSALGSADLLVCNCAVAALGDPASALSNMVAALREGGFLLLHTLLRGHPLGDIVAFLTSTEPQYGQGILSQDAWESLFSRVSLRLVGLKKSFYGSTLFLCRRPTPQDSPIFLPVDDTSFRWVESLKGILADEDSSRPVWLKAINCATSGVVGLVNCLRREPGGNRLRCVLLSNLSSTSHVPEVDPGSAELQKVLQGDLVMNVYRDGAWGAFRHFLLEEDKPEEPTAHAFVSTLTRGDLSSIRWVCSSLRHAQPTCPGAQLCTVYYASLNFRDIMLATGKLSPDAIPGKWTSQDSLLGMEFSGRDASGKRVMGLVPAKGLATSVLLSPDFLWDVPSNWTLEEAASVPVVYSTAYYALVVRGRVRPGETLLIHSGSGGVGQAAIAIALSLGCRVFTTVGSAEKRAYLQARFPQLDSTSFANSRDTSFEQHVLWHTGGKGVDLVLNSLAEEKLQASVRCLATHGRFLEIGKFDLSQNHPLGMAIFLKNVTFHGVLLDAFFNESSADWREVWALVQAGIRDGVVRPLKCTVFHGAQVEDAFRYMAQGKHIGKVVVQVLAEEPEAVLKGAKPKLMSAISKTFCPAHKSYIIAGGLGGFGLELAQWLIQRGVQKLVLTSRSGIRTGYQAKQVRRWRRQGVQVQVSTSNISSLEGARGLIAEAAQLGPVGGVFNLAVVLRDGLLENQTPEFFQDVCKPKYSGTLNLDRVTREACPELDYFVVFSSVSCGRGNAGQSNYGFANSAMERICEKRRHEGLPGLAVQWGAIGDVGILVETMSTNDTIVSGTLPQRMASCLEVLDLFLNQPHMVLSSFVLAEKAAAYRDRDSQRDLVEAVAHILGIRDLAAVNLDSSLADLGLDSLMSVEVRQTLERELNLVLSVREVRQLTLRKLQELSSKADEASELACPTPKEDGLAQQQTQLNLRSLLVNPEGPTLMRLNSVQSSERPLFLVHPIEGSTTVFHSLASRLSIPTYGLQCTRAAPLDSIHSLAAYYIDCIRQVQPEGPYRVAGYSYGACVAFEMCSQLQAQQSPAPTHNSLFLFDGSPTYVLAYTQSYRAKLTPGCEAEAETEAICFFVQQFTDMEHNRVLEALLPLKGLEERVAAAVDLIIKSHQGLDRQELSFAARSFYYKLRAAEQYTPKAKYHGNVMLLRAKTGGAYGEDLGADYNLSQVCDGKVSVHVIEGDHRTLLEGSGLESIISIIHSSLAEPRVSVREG

[28] = molecular target: E3 ubiquitin-protein ligase Mdm2 (Homo sapiens, UniProt Q00987); assay: enhancers of MDM2-luciferase reporter signal, concentration-effect titration, project on inhibitors of MDM2 ubiquitin ligase, cellular assay, luminescent readout, 384-well plate format (AID 1394); assay type: functional;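 also: MDM2 E3 inhibitors raise luminescence so EC50 is for signal enhancement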
Fatty acid synthase [29] = molecular target: T4, Fatty acid synthase; assay: FAS thioesterase domain inhibitors, dose response, biochemical, kinetic fluorescence intensity (AID 624326); assay type: functional;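 also: rate of fluorescence rise from hydrolysis of a fluorogenic O-methyl fluorescein ester substrate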
cells [30] = assay type: functional, cell-based; remark: listed apart in the source

Cc1nn(C)c(C)c1NC(=O)CSc1nc(-c2ccccc2F)nc2c1cnn2-c1ccccc1
> 100 µM (not active): IC50 (Bcl-2-related protein A1 [1]) | IC50 (Bcl-2-related protein A1 [2])

CCOC(=O)c1csc(COc2ccc(OC)cc2)n1
active: IC50 (cells [3]) 47.7 µM | IC50 [4] 8.03 µM

O=c1c2ccccc2cnn1-c1nc2ccccc2[nH]1
inactive: IC50 [6] 15.2 µM | EC50 (BJ [12]) > 133 µM
active: AC50 (Paired box protein Pax-8) 1.65 µM | AC50 [5] 12.1 µM | IC50 [7] 3.98 µM | AC50 [8] 1.33 µM | EC50 [9] 5.22 µM | AC50 [10] 8.61 µM | EC50 [11] 1.16 µM | AC50 [13] 3.39 µM | EC50 (BJ [14]) 5.15 µM | AC50 [15] 0.288 µM | EC50 (BJ [16]) 4.94 µM | AC50 [17] 2.6 µM | AC50 [18] 2.23 µM | AC50 [19] 27.2 µM | EC50 [20] 0.144 µM | AC50 [21] 0.275 µM | EC50 (BJ [22]) 4.79 µM

COc1ccc(/C=C2/SC(N/N=C3\CC4CCC3(C)C4(C)C)=NC2=O)cc1 (stereo unspecified)
inconclusive: AC50 (Cytochrome P450 1A2) 14.1 µM | AC50 (Cytochrome P450 3A4) 12.6 µM | AC50 (Cytochrome P450 2C19) 20 µM
active: EC50 [23] 3.92 µM | EC50 [24] 0.22 µM | IC50 [25] 6 µM
> 150 µM (not active): EC50 (Streptococcus) | EC50 (Streptokinase A)

COCCn1/c(=N/C(=O)c2ccc(S(=O)(=O)N3CCCc4ccccc43)cc2)sc2cc(S(C)(=O)=O)ccc21
inactive: IC50 (Fatty acid synthase [27]) 45.9 µM | IC50 (Fatty acid synthase [29]) 64.5 µM
1.03 µM (not active): EC50 [28]
active: EC50 (cells [30]) 298 µM
> 350 µM (not active): EC50 (cells [26])
